From patent US20230014907A1, “INHIBITORS OF APOL1 AND METHODS OF USING SAME” (Vertex Pharmaceuticals Incorporated, priority 2020, published 2023)

Tests used:
[1] = target: T1, G1 APOL1 (Homo sapiens, UniProt O14791, I384M/S342G); assay: Acute APOL1 Thallium Assay with Inducible Stable Clones of HEK 293 Cells; assay type: cell-based; conditions: HEK 293 inducible stable clones, G1 APOL1; read-out: Thallium Assay (IC50)
T1 construct: expressed in transfected cells
T1 sequence (O14791 28-398 S342G/I384M): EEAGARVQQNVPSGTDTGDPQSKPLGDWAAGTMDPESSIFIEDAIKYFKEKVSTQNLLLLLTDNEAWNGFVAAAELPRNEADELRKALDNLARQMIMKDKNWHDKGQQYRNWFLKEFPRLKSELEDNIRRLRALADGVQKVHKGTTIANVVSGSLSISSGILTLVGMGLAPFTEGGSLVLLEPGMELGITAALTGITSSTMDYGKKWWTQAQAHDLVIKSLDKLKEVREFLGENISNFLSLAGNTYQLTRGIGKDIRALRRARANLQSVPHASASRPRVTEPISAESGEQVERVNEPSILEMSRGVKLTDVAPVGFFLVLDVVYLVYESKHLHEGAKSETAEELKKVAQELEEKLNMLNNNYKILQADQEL
Procedure, shortened: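 HEK293 T-Rex cells with a stable tetracycline-inducible G1 APOL1 construct (clone DC3.25) were induced with tetracycline at plating, 26000 cells per well, then incubated at 37° C. They were loaded with an AM-ester thallium-sensitive dye and stimulated with Tl+. The fluorescence rise measured Tl+ influx through APOL1 pores.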

[2] = target: T2, APOL1 G1 Protein (Homo sapiens, UniProt O14791, I384M/S342G); assay: Trypanosoma brucei brucei Lysis Assay Using APOL1 Recombinant Protein (AlamarBlue viability); assay type: cell-based; conditions: read-out: Trypanosomal Assay (IC50)
T2 sequence (O14791 28-398 S342G/I384M): T1 sequence (O14791 28-398 S342G/I384M)
Source text: Trypanosoma brucei brucei is a blood stream parasite to which human, gorillas and baboon are immune due to the presence of the APOL1 protein in their HDL particles. The protein is uptaken by the parasite via the TbHpHb receptor located in its flagellar pocket and is bonded by the Hpr protein contained in the HDL particles which triggers the receptor endocytosis by the parasite.
Following endocytosis, the formed vesicle containing the HDL particle matures from early to late endosome, and subsequently to lysosome. The concomitant pH change in the lumen of the vesicle triggers the insertion of the APOL1 protein into the membrane of the late endosome/lysosome and hereby triggers lysosomal membrane permeabilization and as a further downstream event, trypanosome lysis. Trypanosoma brucei brucei is sensitive to lysis by all three APOL1 variants (G0, G1, and G2).
The Trypanosoma brucei brucei lysis assay is a lysis assay of the parasite using recombinant APOL1 protein variant followed by a fluorescent detection method of viability by the addition of AlamarBlue reagent to the assay well, a general metabolic redox indicator (AlamarBlue assay).
Briefly, the AlamarBlue active compound, the resazurin, a blue, water soluble, non-toxic and cell permeable molecule, which can be followed by absorbance, is reduced by various metabolic pathways into resorufin, a red compound which can be followed by either absorbance or fluorescence. The assay allows the calculation of the percent viability (percent of living Trypanosomes remaining in each well) at the end of a lysis relative to the untreated condition by interpolation of fluorescent values (FLU) on a standard curve with a known amount of seeded trypanosome/well.
Trypanosoma brucei brucei (ATCC, Cat. No. PRA-382) • Lister 427 VSG 221 bloodstream form.
Thaw/Expansion Media (ATCC Medium 2834 Modified HMI-9 Medium)
Assay Media (No Phenol Red/No FBS): Make on Day of Use
Hypoxanthine Stock (100×)-9 (10×)
Equipment • E1-Clip Tip pipette 12 channel adjustable 2-125 μL, Cat. No. 4672070BT • ThermoFisher MultiDrop 384, Cat. No. 5840300 • Multidrop • Agilent Bravo, Cat. No. G5409A • Bravo • SpectraMax M5
Trypanosoma brucei brucei Culture
Step 2, Day 4 • Centrifuge at 800×g for 5 minutes at room temperature. • Resuspend in 1 mL media. • Make a 1:25 fold dilution (10 μL/240 μL media). • Count on a hemocytometer (after adding parasites). • Let sit for 1-2 minutes for the parasites to settle. • Count should be approximately 100 viable motile parasites/16 grid or approximately 25×10^6 parasites/flask. • Passage the parasites by adding 1×10^6 parasites/T75 flask in 20 mL media. • Passage the parasites by adding 2.33×10^6 parasites/T175 flask in 46.6 mL media. • For every T75 flask should make enough for approximately 1.5×384 well assay plates. • For every T175 flask should make enough for approximately 3.8×384 well assay plates.
Step 3, Day 6 • Centrifuge at 800×g for 5 minutes. • Resuspend in 3 mL assay media (No phenol red, no FBS) per 75 starting flask. • Resuspend in 7 mL assay media (No phenol red, no FBS) per 175 flask • Make a 1:25 fold dilution. • Count by hemocytometer. • Every T75 flask set up should have approximately 75×10^6 parasites/flask (verify doubling time=8.7 hours±1 hour). • Every T175 flask set up should have approximately 175×10^6 parasites/flask (verify doubling time=8.7 hours±1 hour). • Require 46×10^6 parasites per 384 well plate (at 120,000 parasites per well). […]

Structure (SMILES) | IC50 [1] [nM] | IC50 [2] [nM]
O=C(CCc1c(-c2ccc(F)cc2)[nH]c2ccc(F)cc12)Nc1cn[nH]c1 [Compound 46] | > 1000 | > 1000
O=C(CCc1c(-c2ccc(F)cc2)[nH]c2ccc(F)cc12)N[C@@H]1CCC[C@H]1O [Compound 48] | > 1000 | > 1000
NC1CCN(C(=O)CCc2c(-c3ccc(F)cc3)[nH]c3ccc(F)cc23)C1 (stereo not drawn) [Compound 49] | > 1000 | > 1000
O=C(CCc1c(-c2ccc(F)cc2)[nH]c2ccc(F)cc12)N[C@H](CO)C(F)(F)F [Compound 50] | > 1000 | > 1000
CC(CO)N(C)C(=O)CCc1c(-c2ccc(F)cc2)[nH]c2ccc(F)cc12 (stereo not drawn) [Compound 51] | > 1000 | > 1000
CC(C)(C)OC(=O)NC1CN(C(=O)CCc2c(-c3ccc(F)cc3)[nH]c3ccc(F)cc23)C1 [Compound 52] | > 1000 | > 1000
NCC1CCCCN1C(=O)CCc1c(-c2ccc(F)cc2)[nH]c2ccc(F)cc12 (stereo not drawn) [Compound 53] | > 1000 | > 1000
N[C@H]1C[C@H](NC(=O)CCc2c(-c3ccc(F)cc3)[nH]c3ccc(F)cc23)C1 [Compound 54] | > 1000 | > 1000
O=C(CCc1c(-c2ccc(F)cc2)[nH]c2ccc(F)cc12)N1CCC(F)C1 (stereo not drawn) [Compound 55] | > 1000 | > 1000
NC1CCCN(C(=O)CCc2c(-c3ccc(F)cc3)[nH]c3ccc(F)cc23)C1 (stereo not drawn) [Compound 56] | > 1000 | > 1000
CC(C)(C)OC(=O)N[C@H]1C[C@H](NC(=O)CCc2c(-c3ccc(F)cc3)[nH]c3ccc(F)cc23)C1 [Compound 57] | > 1000 | > 1000
O=C(CCc1c(-c2ccc(F)cc2)[nH]c2ccc(F)cc12)N1CC(O)C1 [Compound 58] | > 1000 | > 1000
CC(C)(C)OC(=O)NC1CCC(NC(=O)CCc2c(-c3ccc(F)cc3)[nH]c3ccc(F)cc23)C1 (stereo not drawn) [Compound 60] | > 1000 | > 1000
C[C@H](NC(=O)CCc1c(-c2ccc(F)cc2)[nH]c2ccc(F)cc12)C(N)=O [Compound 61] | > 1000 | > 1000
O=C(CCc1c(-c2ccc(F)cc2)[nH]c2ccc(F)cc12)NC1CONC1=O (stereo not drawn) [Compound 63] | > 1000 | > 1000
O=C(CCc1c(-c2ccc(F)cc2)[nH]c2ccc(F)cc12)NCC1(O)CCC1 [Compound 64] | > 1000 | > 1000
O=C(CCc1c(-c2ccc(F)cc2)[nH]c2ccc(F)cc12)NC1(c2ccccc2)CC1 [Compound 65] | > 1000 | > 1000
CC(C)(C)OC(=O)NC1CCCN(C(=O)CCc2c(-c3ccc(F)cc3)[nH]c3ccc(F)cc23)C1 (stereo not drawn) [Compound 66] | > 1000 | > 1000
NC(=O)CCc1c(-c2ccc(F)cc2)[nH]c2ccc(F)cc12 [Compound 68] | > 1000 | > 1000

The next lines start with results.

IC50 [1] [nM] | Structure (SMILES) | IC50 [2] [nM]
250 to 1000 | CC(CO)(CO)NC(=O)CCc1c(-c2ccc(F)cc2)[nH]c2ccc(F)cc12 [Compound 18] | 250 to 1000
250 to 1000 | CC(C)(CO)NC(=O)CCc1c(-c2ccc(F)cc2)[nH]c2ccc(F)cc12 [Compound 19] | 250 to 1000
> 1000 | NC(=O)C1(NC(=O)CCc2c(-c3ccc(F)cc3)[nH]c3ccc(F)cc23)CC1 [Compound 20] | > 1000
250 to 1000 | O=C(CCc1c(-c2ccc(F)cc2)[nH]c2ccc(F)cc12)NC(CO)C1CC1 (stereo not drawn) [Compound 21] | 250 to 1000
250 to 1000 | O=C(CCc1c(-c2ccc(F)cc2)[nH]c2ccc(F)cc12)NC(CO)CO [Compound 22] | 250 to 1000
> 1000 | O=C(CCc1c(-c2ccc(F)cc2)[nH]c2ccc(F)cc12)N[C@H]1C[C@@H]1c1ccccc1 [Compound 23] | > 1000
250 to 1000 | O=C(CCc1c(-c2ccc(F)cc2)[nH]c2ccc(F)cc12)NCC(F)F [Compound 24] | > 1000
> 1000 | O=C(CCc1c(-c2ccc(F)cc2)[nH]c2ccc(F)cc12)NCCO [Compound 25] | > 1000
> 1000 | O=C(CCc1c(-c2ccc(F)cc2)[nH]c2ccc(F)cc12)NC1CCCNC1=O (stereo not drawn) [Compound 26] | > 1000
> 1000 | CC1(NC(=O)OC(C)(C)C)CCN(C(=O)CCc2c(-c3ccc(F)cc3)[nH]c3ccc(F)cc23)C1 (stereo not drawn) [Compound 27] | > 1000
250 to 1000 | C[C@H](O)[C@H](CO)NC(=O)CCc1c(-c2ccc(F)cc2)[nH]c2ccc(F)cc12 [Compound 28] | > 1000
250 to 1000 | O=C(CCc1c(-c2ccc(F)cc2)[nH]c2ccc(F)cc12)N[C@H]1CC[C@@H]1O [Compound 29] | 250 to 1000
> 1000 | C[C@@H](CO)NC(=O)CCc1c(-c2ccc(F)cc2)[nH]c2ccc(F)cc12 [Compound 31] | 250 to 1000
250 to 1000 | O=C(CCc1c(-c2ccc(F)cc2)[nH]c2ccc(F)cc12)NC1(CO)COC1 [Compound 32] | 250 to 1000
> 1000 | CC(C)(C)OC(=O)NC1CCN(C(=O)CCc2c(-c3ccc(F)cc3)[nH]c3ccc(F)cc23)C1 (stereo not drawn) [Compound 34] | > 1000
> 1000 | NC(=O)C(CO)NC(=O)CCc1c(-c2ccc(F)cc2)[nH]c2ccc(F)cc12 (stereo not drawn) [Compound 36] | > 1000
> 1000 | CN(CCN)C(=O)CCc1c(-c2ccc(F)cc2)[nH]c2ccc(F)cc12 [Compound 37] | > 1000
250 to 1000 | C[C@@H](O)[C@H](CO)NC(=O)CCc1c(-c2ccc(F)cc2)[nH]c2ccc(F)cc12 [Compound 38] | 250 to 1000
250 to 1000 | O=C(CCc1c(-c2ccc(F)cc2)[nH]c2ccc(F)cc12)NCC(F)(F)F [Compound 39] | > 1000
250 to 1000 | O=C(CCc1c(-c2ccc(F)cc2)[nH]c2ccc(F)cc12)NC1(CO)CC1 [Compound 40] | 250 to 1000
> 1000 | CN1CC(NC(=O)CCc2c(-c3ccc(F)cc3)[nH]c3ccc(F)cc23)C(=O)N1 (stereo not drawn) [Compound 41] | > 1000
> 1000 | O=C(CCc1c(-c2ccc(F)cc2)[nH]c2ccc(F)cc12)N1CCC(O)C1 (stereo not drawn) [Compound 42] | > 1000
> 1000 | O=C(CCc1c(-c2ccc(F)cc2)[nH]c2ccc(F)cc12)NCC1COC1 [Compound 43] | > 1000
> 1000 | O=C(CCc1c(-c2ccc(F)cc2)[nH]c2ccc(F)cc12)NC1CC1c1ccc(F)cc1 (stereo not drawn) [Compound 44] | > 1000
250 to 1000 | O=C(CCc1c(-c2ccc(F)cc2)[nH]c2ccc(F)cc12)NC1CC1(F)F (stereo not drawn) [Compound 45] | > 1000
250 to 1000 | O=C(CCc1c(-c2ccc(F)cc2)[nH]c2ccc(F)cc12)NC1CC(F)(F)C1 [Compound 47] | > 1000
